For test [1], the target named is T1, Oxysterols receptor LXR-beta (Homo sapiens, UniProt P55055).
T1 sequence (P55055 whole entry): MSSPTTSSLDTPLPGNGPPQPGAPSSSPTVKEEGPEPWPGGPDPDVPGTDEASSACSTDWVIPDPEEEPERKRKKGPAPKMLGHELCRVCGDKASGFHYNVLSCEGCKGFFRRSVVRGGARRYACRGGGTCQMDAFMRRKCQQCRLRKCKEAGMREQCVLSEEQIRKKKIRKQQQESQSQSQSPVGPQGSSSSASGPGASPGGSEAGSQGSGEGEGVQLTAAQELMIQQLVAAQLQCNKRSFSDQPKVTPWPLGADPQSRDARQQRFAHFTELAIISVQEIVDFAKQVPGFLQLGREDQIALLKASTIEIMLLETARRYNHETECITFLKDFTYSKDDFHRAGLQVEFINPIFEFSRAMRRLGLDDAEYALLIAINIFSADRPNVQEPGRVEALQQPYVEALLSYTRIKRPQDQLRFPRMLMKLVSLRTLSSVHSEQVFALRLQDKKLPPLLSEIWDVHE
Type of test: functional.

Test [2] has as its target T2, Oxysterols receptor LXR-alpha (Homo sapiens, UniProt Q13133).
T2 sequence (Q13133 whole entry): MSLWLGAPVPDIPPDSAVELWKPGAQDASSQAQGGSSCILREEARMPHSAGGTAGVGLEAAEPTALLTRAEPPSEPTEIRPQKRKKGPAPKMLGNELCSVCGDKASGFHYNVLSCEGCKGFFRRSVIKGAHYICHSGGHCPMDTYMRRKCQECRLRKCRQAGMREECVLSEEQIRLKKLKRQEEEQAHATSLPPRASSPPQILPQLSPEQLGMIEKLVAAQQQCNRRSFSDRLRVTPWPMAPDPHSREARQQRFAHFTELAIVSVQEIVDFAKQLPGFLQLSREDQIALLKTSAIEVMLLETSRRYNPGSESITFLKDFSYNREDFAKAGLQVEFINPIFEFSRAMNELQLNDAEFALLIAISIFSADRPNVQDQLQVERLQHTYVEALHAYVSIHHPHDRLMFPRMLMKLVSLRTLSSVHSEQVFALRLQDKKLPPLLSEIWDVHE
It is filed as functional.

The target of test [3] is T3, Bile acid receptor (Homo sapiens, UniProt Q96RI1).
T3 sequence (Q96RI1 whole entry): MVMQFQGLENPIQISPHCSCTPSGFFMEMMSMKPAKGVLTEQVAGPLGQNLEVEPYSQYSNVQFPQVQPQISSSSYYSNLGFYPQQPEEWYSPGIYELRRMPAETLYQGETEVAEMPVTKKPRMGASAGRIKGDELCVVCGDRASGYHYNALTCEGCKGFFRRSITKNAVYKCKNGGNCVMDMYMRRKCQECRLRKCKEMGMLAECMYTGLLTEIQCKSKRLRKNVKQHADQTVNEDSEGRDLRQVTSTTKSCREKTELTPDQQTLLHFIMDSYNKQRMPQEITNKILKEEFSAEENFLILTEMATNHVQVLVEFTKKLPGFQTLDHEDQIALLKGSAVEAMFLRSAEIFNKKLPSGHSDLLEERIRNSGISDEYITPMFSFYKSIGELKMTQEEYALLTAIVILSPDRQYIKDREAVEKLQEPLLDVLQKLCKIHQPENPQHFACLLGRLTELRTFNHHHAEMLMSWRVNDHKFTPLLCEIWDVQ
Type of test: functional.

Test [4] addresses T3, Bile acid receptor. Type of test: functional. This is another data set of the same source.
In test [5] the target is T4, Retinoic acid receptor alpha (Homo sapiens, UniProt P10276).
T4 sequence (P10276 whole entry): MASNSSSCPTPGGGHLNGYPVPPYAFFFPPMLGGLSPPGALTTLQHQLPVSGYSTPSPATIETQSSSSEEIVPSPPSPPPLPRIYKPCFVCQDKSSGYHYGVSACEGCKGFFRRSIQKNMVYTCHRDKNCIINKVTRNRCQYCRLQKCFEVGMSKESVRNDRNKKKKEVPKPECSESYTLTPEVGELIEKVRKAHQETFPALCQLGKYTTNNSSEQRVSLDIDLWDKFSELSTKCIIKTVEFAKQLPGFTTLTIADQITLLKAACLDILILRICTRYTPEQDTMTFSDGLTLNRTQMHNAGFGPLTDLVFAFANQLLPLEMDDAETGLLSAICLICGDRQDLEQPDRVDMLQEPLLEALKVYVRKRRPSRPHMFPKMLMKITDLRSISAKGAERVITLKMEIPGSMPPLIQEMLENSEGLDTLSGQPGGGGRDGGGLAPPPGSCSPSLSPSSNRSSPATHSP
Type of test: functional, cell-based.

Test [6] addresses T5, Retinoic acid receptor beta (Homo sapiens, UniProt P10826).
T5 sequence (P10826 whole entry): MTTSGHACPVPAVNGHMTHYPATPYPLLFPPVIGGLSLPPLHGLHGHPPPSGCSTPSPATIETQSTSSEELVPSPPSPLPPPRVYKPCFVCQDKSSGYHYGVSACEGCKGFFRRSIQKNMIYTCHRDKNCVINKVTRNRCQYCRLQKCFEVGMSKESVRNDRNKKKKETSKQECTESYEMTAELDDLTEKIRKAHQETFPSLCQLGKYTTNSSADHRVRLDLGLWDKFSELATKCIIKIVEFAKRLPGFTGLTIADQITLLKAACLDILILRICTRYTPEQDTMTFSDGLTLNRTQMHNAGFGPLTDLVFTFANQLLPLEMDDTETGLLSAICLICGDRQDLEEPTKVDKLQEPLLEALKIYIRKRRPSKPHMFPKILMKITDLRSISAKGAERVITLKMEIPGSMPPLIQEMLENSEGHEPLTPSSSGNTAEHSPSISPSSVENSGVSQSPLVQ
It is filed as functional, cell-based.

Test [7] addresses T6, Retinoic acid receptor gamma (Homo sapiens, UniProt P13631).
T6 sequence (P13631 whole entry): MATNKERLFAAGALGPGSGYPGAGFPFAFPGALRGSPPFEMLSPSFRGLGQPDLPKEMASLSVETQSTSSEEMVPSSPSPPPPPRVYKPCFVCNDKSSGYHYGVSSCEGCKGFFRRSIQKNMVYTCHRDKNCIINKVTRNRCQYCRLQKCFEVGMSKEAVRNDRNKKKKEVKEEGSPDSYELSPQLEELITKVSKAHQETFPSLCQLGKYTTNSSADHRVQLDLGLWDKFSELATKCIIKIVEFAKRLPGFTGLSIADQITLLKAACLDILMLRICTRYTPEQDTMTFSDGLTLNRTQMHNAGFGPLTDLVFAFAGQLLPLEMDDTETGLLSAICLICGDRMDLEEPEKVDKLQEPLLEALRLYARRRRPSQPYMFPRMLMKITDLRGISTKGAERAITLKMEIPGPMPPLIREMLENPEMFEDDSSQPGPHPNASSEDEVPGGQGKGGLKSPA
Type of test: functional, cell-based.

The target in test [8] is T6, Retinoic acid receptor gamma. It is filed as functional, cell-based. The source holds these as a separate data set.

The structures appear in SMILES notation.
Further: assay procedure not described here.

As for `CN1C(C(=O)Nc2ccccn2)=C(O)c2sc(Cl)cc2S1(=O)=O` [LORNOXICAM], the AC50 (in test [1]; in test [2]; on Bile acid receptor [3]; on Bile acid receptor [4]; in test [5]; in test [6]) was greater than 30 µM throughout. Also, the AC50 in test [7] and in test [8] was greater than 30 µM each time.
As for `Cc1c(C(=O)NN2CCCCC2)nn(-c2ccc(Cl)cc2Cl)c1-c1ccc(Cl)cc1` [RIMONABANT], the AC50 (as a rule, the concentration giving half of the maximal activity seen) in test [1] was greater than 30 µM; in test [2], greater than 30 µM; at Bile acid receptor [3], greater than 30 µM; at Bile acid receptor [4] it was 14 µM; in test [5], greater than 30 µM; in test [6], greater than 30 µM. Moreover, the concentration at half-maximal activity (AC50) in test [7] and in test [8] was greater than 30 µM in each case.
